Marks after values point to notes of the source that are not given here.
Columns and labels:
[1] = test system: subjects with chronic ITP; assay: Recurrence of thrombocytopenia upon discontinuation of E5501 (platelet count below 10,000/mm^3); assay type: in vivo, human; conditions: for Recurrence of thrombocytopenia: Relation To E5501: assessed by the investigator
Method: Recurrence of Thrombocytopenia. Recurrence of thrombocytopenia has been previously reported and is of special interest in this population. Recurrence of thrombocytopenia was defined as a platelet count that decreased to below 10,000/mm^3 upon discontinuation of E5501. In this study, 9 subjects potentially met the criteria for recurrence of thrombocytopenia. Three were deemed serious; all 3 recovered.
All 9 cases occurred at an E5501 dose of 10 mg or above, and the majority (n=6/9) occurred within 2 weeks after discontinuation of E5501 (FIG. 3). However, recurrent thrombocytopenia was seen up to 4 weeks after the last dose of study drug.

[2] = test system: subjects with chronic ITP; assay: Treatment-emergent bleeding events (WHO Bleeding Scale; Kaplan-Meier time to first bleeding event); assay type: in vivo, human
Description: As used herein, the term “bleeding” refers to any bleeding, as measured by the World Health Organization's Bleeding Scale (e.g., Grade 0=no bleeding; Grade 1=petechial bleeding; Grade 2=clinical significant mild blood loss; […]=gross (severe) blood loss, requiring transfusion; Grade 5=debilitating blood loss, retinal or cerebral associated with fatality). In some embodiments, the bleeding may be due to a low platelet count.
Bleeding Events. During the combined study period, 43 (67.2%) of the 64 subjects reported a treatment-emergent bleeding event (Table 23). Gingival bleeding was the most frequently reported bleeding event, occurring in 7 subjects (10.9%). All were grade 1 (n=6) or grade 2 (n=1) and none were considered to be related to study drug.
Using Kaplan-Meier methods, the estimated median time to the first bleeding event was 8 weeks (95% CI: 4.7-15.3 weeks) after initiation of E5501 (FIG. 5).

[3] = Lower ⅓ dose (2.5-<8.85 mg), N=22
[4] = Middle ⅓ dose (≧8.85-<13.5 mg), N=22
[5] = Upper ⅓ dose (≧13.5-≦25.7 mg), N=20

O=C(Nc1nc(-c2cc(Cl)cs2)c(N2CCN(C3CCCCC3)CC2)s1)c1cnc(N2CCC(C(=O)O)CC2)c(Cl)c1 [E5501, 1-(3-chloro-5-{[4-(4-chlorothiophen-2-yl)-5-(4-cyclohexylpiperazin-1-yl)thiazol-2-yl]carbamoyl}pyridine-2-yl)piperidine-4-carboxylic acid]
Recurrence of thrombocytopenia: Outcome ([1]; Subject A, 20-30 mg, 1st entry): Recovered | Recurrence of thrombocytopenia: Platelet Count ([1]; Subject A, 20-30 mg, 1st entry): 3 K/mm^3 | Recurrence of thrombocytopenia: Serious ([1]; Subject A, 20-30 mg, 1st entry): No | Recurrence of thrombocytopenia: Study Days (No. Days Posttreatment) ([1]; Subject A, 20-30 mg, 1st entry): 193 (17) Days | Recurrence of thrombocytopenia: Relation To E5501 ([1]; Subject A, 20-30 mg, 1st entry): Not related | Recurrence of thrombocytopenia: Outcome ([1]; Subject A, 20-30 mg, 2nd entry): Recovered | Recurrence of thrombocytopenia: Platelet Count ([1]; Subject A, 20-30 mg, 2nd entry): 6 K/mm^3 | Recurrence of thrombocytopenia: Serious ([1]; Subject A, 20-30 mg, 2nd entry): No | Recurrence of thrombocytopenia: Study Days (No. Days Posttreatment) ([1]; Subject A, 20-30 mg, 2nd entry): 235 (59) Days | Recurrence of thrombocytopenia: Relation To E5501 ([1]; Subject A, 20-30 mg, 2nd entry): Not related | Recurrence of thrombocytopenia: Outcome ([1]; Subject A, 20-30 mg, 3rd entry): Recovered | Recurrence of thrombocytopenia: Platelet Count ([1]; Subject A, 20-30 mg, 3rd entry): 4 K/mm^3 | Recurrence of thrombocytopenia: Serious ([1]; Subject A, 20-30 mg, 3rd entry): No | Recurrence of thrombocytopenia: Study Days (No. Days Posttreatment) ([1]; Subject A, 20-30 mg, 3rd entry): 249 (73) Days | Recurrence of thrombocytopenia: Relation To E5501 ([1]; Subject A, 20-30 mg, 3rd entry): Not related | Recurrence of thrombocytopenia: Platelet Count ([1]; Subject B, 10 mg): 1 K/mm^3 | Recurrence of thrombocytopenia: Serious ([1]; Subject B, 10 mg): No | Recurrence of thrombocytopenia: Study Days (No. Days Posttreatment) ([1]; Subject B, 10 mg): 209 (28) Days | Recurrence of thrombocytopenia: Outcome ([1]; Subject C, 10-20 mg): Recovered | Recurrence of thrombocytopenia: Platelet Count ([1]; Subject C, 10-20 mg): 6 K/mm^3 | Recurrence of thrombocytopenia: Serious ([1]; Subject C, 10-20 mg): No | Recurrence of thrombocytopenia: Study Days (No. Days Posttreatment) ([1]; Subject C, 10-20 mg): 182 (14) Days | Recurrence of thrombocytopenia: Relation To E5501 ([1]; Subject C, 10-20 mg): Probably | Recurrence of thrombocytopenia: Outcome ([1]; Subject D, 20 mg): Recovered | Recurrence of thrombocytopenia: Platelet Count ([1]; Subject D, 20 mg): 1 K/mm^3 | Recurrence of thrombocytopenia: Serious ([1]; Subject D, 20 mg): Serious | Recurrence of thrombocytopenia: Study Days (No. Days Posttreatment) ([1]; Subject D, 20 mg): 193 (10) Days | Recurrence of thrombocytopenia: Relation To E5501 ([1]; Subject D, 20 mg): Not related | Recurrence of thrombocytopenia: Platelet Count ([1]; Subject E, 10 mg): 8 K/mm^3 | Recurrence of thrombocytopenia: Serious ([1]; Subject E, 10 mg): No | Recurrence of thrombocytopenia: Study Days (No. Days Posttreatment) ([1]; Subject E, 10 mg): 209 (7) Days | Recurrence of thrombocytopenia: Outcome ([1]; Subject F, 20 mg): Recovered | Recurrence of thrombocytopenia: Platelet Count ([1]; Subject F, 20 mg): 8 K/mm^3 | Recurrence of thrombocytopenia: Serious ([1]; Subject F, 20 mg): Serious | Recurrence of thrombocytopenia: Study Days (No. Days Posttreatment) ([1]; Subject F, 20 mg): 192 (11) Days | Recurrence of thrombocytopenia: Relation To E5501 ([1]; Subject F, 20 mg): Not related | Recurrence of thrombocytopenia: Outcome ([1]; Subject G, 2.5-12.5 mg): Recovered | Recurrence of thrombocytopenia: Serious ([1]; Subject G, 2.5-12.5 mg): Serious | Recurrence of thrombocytopenia: Study Days (No. Days Posttreatment) ([1]; Subject G, 2.5-12.5 mg): 179 (13) Days | Recurrence of thrombocytopenia: Relation To E5501 ([1]; Subject G, 2.5-12.5 mg): Probably | Recurrence of thrombocytopenia: Platelet Count ([1]; Subject G, 2.5-12.5 mg, recorded 3 days before the event): 16^g K/mm^3 | Recurrence of thrombocytopenia: Outcome ([1]; Subject H, 10-40 mg): Recovered | Recurrence of thrombocytopenia: Platelet Count ([1]; Subject H, 10-40 mg): 4 K/mm^3 | Recurrence of thrombocytopenia: Serious ([1]; Subject H, 10-40 mg): No | Recurrence of thrombocytopenia: Study Days (No. Days Posttreatment) ([1]; Subject H, 10-40 mg): 143 (16) Days | Recurrence of thrombocytopenia: Relation To E5501 ([1]; Subject H, 10-40 mg): Not related | Recurrence of thrombocytopenia: Outcome ([1]; Subject I, 10-20 mg, 1st entry): Recovered | Recurrence of thrombocytopenia: Platelet Count ([1]; Subject I, 10-20 mg, 1st entry): 8 K/mm^3 | Recurrence of thrombocytopenia: Serious ([1]; Subject I, 10-20 mg, 1st entry): No | Recurrence of thrombocytopenia: Study Days (No. Days Posttreatment) ([1]; Subject I, 10-20 mg, 1st entry): 181 (13) Days | Recurrence of thrombocytopenia: Relation To E5501 ([1]; Subject I, 10-20 mg, 1st entry): Not related | Recurrence of thrombocytopenia: Outcome ([1]; Subject I, 10-20 mg, 2nd entry): Recovered | Recurrence of thrombocytopenia: Platelet Count ([1]; Subject I, 10-20 mg, 2nd entry): 9 K/mm^3 | Recurrence of thrombocytopenia: Serious ([1]; Subject I, 10-20 mg, 2nd entry): No | Recurrence of thrombocytopenia: Study Days (No. Days Posttreatment) ([1]; Subject I, 10-20 mg, 2nd entry): 233 (65) Days | Recurrence of thrombocytopenia: Relation To E5501 ([1]; Subject I, 10-20 mg, 2nd entry): Not related | recurrences of thrombocytopenia deemed serious ([1]; in vivo): Three | recurrences of thrombocytopenia within 2 weeks after discontinuation of E5501 ([1]; of 9 cases): 6 n | subjects who potentially met the criteria for recurrence of thrombocytopenia ([1]; upon discontinuation, E5501 dose of 10 mg or above): 9 subjects | Any TE bleeding event, % of subjects ([2]; E5501 Total, N=64): (67.2) % | Any TE bleeding event, n of subjects ([2]; E5501 Total, N=64): 43 | TE bleeding event, highest toxicity Grade 1, % of subjects ([2]; E5501 Total, N=64): (45.3) % | TE bleeding event, highest toxicity Grade 1, n of subjects ([2]; E5501 Total, N=64): 29 | TE bleeding event, highest toxicity Grade 2, % of subjects ([2]; E5501 Total, N=64): (17.2) % | TE bleeding event, highest toxicity Grade 2, n of subjects ([2]; E5501 Total, N=64): 11 | TE bleeding event, highest toxicity Grade 3, % of subjects ([2]; E5501 Total, N=64): (4.7) % | TE bleeding event, highest toxicity Grade 3, n of subjects ([2]; E5501 Total, N=64): 3 | TE bleeding event, highest toxicity Grade 4, % of subjects ([2]; E5501 Total, N=64): (1.6) % | TE bleeding event, highest toxicity Grade 4, n of subjects ([2]; E5501 Total, N=64): 1 | TE bleeding event, highest toxicity Grade 5, n of subjects ([2]; E5501 Total, N=64): 0 | estimated median time to the first bleeding event ([2]; Kaplan-Meier, after initiation of E5501, 95% CI: 4.7-15.3 weeks): 8 weeks | Any TE bleeding event, % of subjects [2, 3]: (68.2) % | Any TE bleeding event, n of subjects [2, 3]: 15 | TE bleeding event, highest toxicity Grade 1, % of subjects [2, 3]: (50.0) % | TE bleeding event, highest toxicity Grade 1, n of subjects [2, 3]: 11 | TE bleeding event, highest toxicity Grade 2, % of subjects [2, 3]: (9.1) % | TE bleeding event, highest toxicity Grade 2, n of subjects [2, 3]: 2 | TE bleeding event, highest toxicity Grade 3, % of subjects [2, 3]: (4.5) % | TE bleeding event, highest toxicity Grade 3, n of subjects [2, 3]: 1 | TE bleeding event, highest toxicity Grade 4, % of subjects [2, 3]: (4.5) % | TE bleeding event, highest toxicity Grade 4, n of subjects [2, 3]: 1 | TE bleeding event, highest toxicity Grade 5, n of subjects [2, 3]: 0 | Any TE bleeding event, % of subjects [2, 4]: (63.6) % | Any TE bleeding event, n of subjects [2, 4]: 14 | TE bleeding event, highest toxicity Grade 1, % of subjects [2, 4]: (40.9) % | TE bleeding event, highest toxicity Grade 1, n of subjects [2, 4]: 9 | TE bleeding event, highest toxicity Grade 2, % of subjects [2, 4]: (13.6) % | TE bleeding event, highest toxicity Grade 2, n of subjects [2, 4]: 3 | TE bleeding event, highest toxicity Grade 3, % of subjects [2, 4]: (9.1) % | TE bleeding event, highest toxicity Grade 3, n of subjects [2, 4]: 2 | TE bleeding event, highest toxicity Grade 4, n of subjects [2, 4]: 0 | TE bleeding event, highest toxicity Grade 5, n of subjects [2, 4]: 0 | Any TE bleeding event, % of subjects [2, 5]: 70.0% | Any TE bleeding event, n of subjects [2, 5]: 14 | TE bleeding event, highest toxicity Grade 1, % of subjects [2, 5]: 40.0% | TE bleeding event, highest toxicity Grade 1, n of subjects [2, 5]: 8 | TE bleeding event, highest toxicity Grade 2, % of subjects [2, 5]: 30.0% | TE bleeding event, highest toxicity Grade 2, n of subjects [2, 5]: 6 | TE bleeding event, highest toxicity Grade 3, n of subjects [2, 5]: 0 | TE bleeding event, highest toxicity Grade 4, n of subjects [2, 5]: 0 | TE bleeding event, highest toxicity Grade 5, n of subjects [2, 5]: 0 | subjects with a clinically significant, grade 3 or 4 bleeding event ([2]; combined study period): Four | subjects reporting a treatment-emergent bleeding event ([2]; combined study period, 64 subjects): 67.2%

Source: patent US20110166112A1, “METHOD FOR STIMULATING PLATELET PRODUCTION” (Eisai, Inc., priority 2009, published 2011)
